The test system of assay [1] is cultured urothelial cells. Put plainly: Click-iT EdU assay of newly synthesized DNA. It is filed as cell-based. Conditions: ET-1 10 nM (25 ng/ml) vs control. An excerpt: Click-iT EdU assay (Invitrogen) was used to detect and quantify newly synthesized DNA. […] In Click-iT assay, EdU can be detected by green fluorescent dye and nuclei can be detected by blue fluorescent dye. Using fluorescent microplate reader (Synergy2, BioTek) both green and blue fluorescent signal were detected and quantified as shown in the bar graph of FIG. 3).

Assay [2] has as its system human primary urothelial cells. Put plainly: growth of cultured human primary urothelial cells (proliferation assay). Conditions: 20 μM ET-1. It is filed as cell-based. An excerpt: Control cultures receive only the vehicle.
For assay [3], the system named is rabbit primary urothelial cells. Particulars: ET-1 at 20 μM.
Method: Briefly, explanted epithelial cells propagated from fresh biopsy specimens are grown in DMEM-F12 with 10% heat-inactivated fetal bovine serum, 1% antibiotic/antimycotic, 1% L-glutamine, 1.0 unit/ml insulin (all from Sigma), and 5 μg/ml human epidermal growth factor at 37° C. in a humidified atmosphere of 5% CO2 and 95% air. […] Cell proliferation is assessed also by ^3H-thymidine incorporation and by cell counting using a haemocytometer. ET-1 samples are diluted at varying concentrations in serum-free MEM (containing only glutamine and antibiotics) and applied to cells. Control cultures receive only the vehicle. Cells are fed with serum-free medium for the proliferation assay.
Cultures are exposed to 1 μCi per well ^3H-thymidine (1 Ci=37 GiBg) for 4 hrs and trypsinized, sedimented by brief centrifugation (3,000 rpm for 10 min) and the cell pellets are washed with a buffer containing cold thymidine and the radioactivity determined using a scintillation counter. The ^3H-thymidine incorporation is expressed as a mean decrease in cpm of >2 SD from the mean of control cells for each plate. […] After developing the autoradiographs in D-19 (15° C.) and fixation, culture plates are stained with H &E. Cultures are examined under a light microscope and the number of cells showing silver grains in the nuclei from 10 selected fields on the culture plate are counted. […]

Entries after “also recorded” stand apart in the source; their conditions may differ.

As to `CC[C@H](C)[C@H](NC(=O)[C@H](CC(=O)O)NC(=O)[C@H](CC(C)C)NC(=O)[C@H](Cc1c[nH]cn1)NC(=O)[C@@H]1CSSC[C@H](N)C(=O)N[C@@H](CO)C(=O)N[C@H]2CSSC[C@H](NC(=O)[C@H](CCC(=O)O)NC(=O)[C@H](CCCCN)NC(=O)[C@H](CC(=O)O)NC(=O)[C@H](CCSC)NC(=O)[C@H](CC(C)C)NC(=O)[C@H](CO)NC(=O)[C@H](CO)NC2=O)C(=O)N[C@@H](C(C)C)C(=O)N[C@@H](Cc2ccc(O)cc2)C(=O)N[C@@H](Cc2ccccc2)C(=O)N1)C(=O)N[C@H](C(=O)N[C@@H](Cc1c[nH]c2ccccc12)C(=O)O)[C@@H](C)CC` [ET-1, Endothelin-1], the “EdU staining (newly synthesized DNA) in cultured urothelial cells” value in assay [1] was “significant decrease”. Besides, the “effect on cell growth of cultured human urothelial cells” value in assay [2] is “inhibited; also recorded: inhibition”. In addition, the “inhibition of growth of rabbit primary urothelial cells” value in assay [3] was 30-40%.
